In patent US4563472A, “Iodoallyl and iodopropargyl substituted tetrazoles and anti-microbial compositions thereof” (Meiji Seika Kaisha, Ltd., priority 1982, dated 1986) one finds MIC data, which are given here for two molecules.

Structures are written as SMILES. Converted amounts (≈) assume the structure as drawn. Like-named read-outs stand apart in the source and are kept apart here.

Common to all, as to type: cell-based
Test [1] has as its system Staphylococcus aureus 209P JC-1. The test can be described thus: Antibacterial Activity (in medicinal field), MIC. The following applies: read-out: Minimal Inhibitory Conc. (MIC).
The test system of test [2] is Bacillus anthracis No. 119. The test can be described thus: microbe, parasite or virus in culture. The following applies: NO.119, read-out: Minimal Inhibitory Conc. (MIC).
The test system of test [3] is Escherichia coli NIHJ JC-2. The test can be described thus: Antibacterial Activity (in medicinal field), MIC. The note with it: NIHJJC2, read-out: Minimal Inhibitory Conc. (MIC).
The subject of the next test is Salmonella typhi O-901-W. Nature of the test: Antibacterial Activity (in medicinal field), MIC. The following applies: Salmonella enterica, read-out: Minimal Inhibitory Conc. (MIC).
In test [4] the test system is Shigella sonnei EW 33 Type I. Nature of the test: Antibacterial Activity (in medicinal field), MIC. The following applies: EW33TYPEI; Shigella sonnei EW 33 Type I; read-out: Minimal Inhibitory Conc. (MIC).
Test [5] deals with Klebsiella pneumoniae PCI-602. The test can be described thus: Antibacterial Activity (in medicinal field), MIC. The following applies: PCI602, read-out: Minimal Inhibitory Conc. (MIC).
A further test has as its system Proteus vulgaris OX-19. The test can be described thus: Antibacterial Activity (in medicinal field), MIC. The following applies: OX19, read-out: Minimal Inhibitory Conc. (MIC).
In test [6] the test system is Serratia marcescens MB-3848. The test can be described thus: Antibacterial Activity (in medicinal field), MIC. The note with it: MB3848, read-out: Minimal Inhibitory Conc. (MIC).
The test system of test [7] is Pseudomonas cepacia M-0527. Nature of the test: Antibacterial Activity (in medicinal field), MIC. The note with it: Burkholderia cepacia, M0527, read-out: Minimal Inhibitory Conc. (MIC).
Test [8] relates to Pseudomonas maltophilia M-0627. Nature of the test: Antibacterial Activity (in medicinal field), MIC. The note with it: Stenotrophomonas maltophilia, M0627, read-out: Minimal Inhibitory Conc. (MIC).
Another test relates to Candida alubicans GA-24. Nature of the test: Antifungal Activity (in Medicinal Field), MIC. The note with it: GA24; Candida alubicans GA-24; read-out: Minimal Inhibitory Conc. (MIC).
In test [9] the test system is Cryptococcus neoformans Cr-1. Nature of the test: Antifungal Activity (in Medicinal Field), MIC. The following applies: CR1, read-out: Minimal Inhibitory Conc. (MIC).
Test [10] concerns Trichophyton metagrophytes 530324. Nature of the test: Antifungal Activity (in Medicinal Field), MIC. The note with it: Trichophyton metagrophytes 530324; read-out: Minimal Inhibitory Conc. (MIC).
Test [11] deals with Trichophyton interdigitale. The test can be described thus: Antifungal Activity (in Medicinal Field), MIC. The note with it: read-out: Minimal Inhibitory Conc. (MIC).
Test [12] concerns Aspergillus fumigatus Saito. Nature of the test: Antifungal Activity (in Medicinal Field), MIC. The note with it: read-out: Minimal Inhibitory Conc. (MIC).
In test [13] the test system is Staphylococcus epidermidis ATCC 14990. The test can be described thus: Antibacterial Activity (in medicinal field), MIC. The following applies: Staphylococcus epidermidis, ATCC14990, read-out: Minimal Inhibitory Conc. (MIC).
The subject of test [14] is Staphylococcus faecalis ATCC 8043. The test can be described thus: Antibacterial Activity (in medicinal field), MIC. The note with it: ATCC8043, read-out: Minimal Inhibitory Conc. (MIC).
Test [15] has as its system Aspergillus flavus ATCC 6275. Nature of the test: Antifungal Activity (in Industrial Field), MIC. The following applies: ATCC6275, read-out: Minimal Inhibitory Conc. (MIC).
In test [16] the test system is Aspergillus terreus PQMD 82 j. Nature of the test: Antifungal Activity (in Industrial Field), MIC. The note with it: PQMD82J, read-out: Minimal Inhibitory Conc. (MIC).
Test [17] deals with Penicillium luteum ATCC 9644. The test can be described thus: Antifungal Activity (in Industrial Field), MIC. The note with it: Ascospirella lutea, ATCC9644, read-out: Minimal Inhibitory Conc. (MIC).
A further test concerns Mucor spinescens IAM Mu3. The test can be described thus: Antifungal Activity (in Industrial Field), MIC. The following applies: IAMMU3, read-out: Minimal Inhibitory Conc. (MIC).
In test [18] the test system is Cladosporium herbarum IAM F-517. Nature of the test: Antifungal Activity (in Industrial Field), MIC. The note with it: IAMF517, read-out: Minimal Inhibitory Conc. (MIC).
The subject of test [19] is Pullularia pullulans IAM F-24. The test can be described thus: Antifungal Activity (in Industrial Field), MIC. The note with it: IAMF24; Pullularia pullulans IAM F-24; read-out: Minimal Inhibitory Conc. (MIC).
Test [20] deals with Trichoderma T-1 ATCC 9645. The test can be described thus: Antifungal Activity (in Industrial Field), MIC. The note with it: ATCC9645, read-out: Minimal Inhibitory Conc. (MIC).
Test [21] relates to Chaetomium globosum ATCC 6205. Nature of the test: Antifungal Activity (in Industrial Field), MIC. The following applies: ATCC6205, read-out: Minimal Inhibitory Conc. (MIC).
For test [22], the system named is Aspergillus fumigatus IAM 2621. The test can be described thus: Antifungal Activity (in Industrial Field), MIC. The note with it: IAM2621, read-out: Minimal Inhibitory Conc. (MIC).

`IC(I)=C(I)Cn1cnnn1` [1-(2',3',3'-triiodoallyl)tetrazole]: the MIC in test [1] (Staphylococcus aureus 209P JC-1) is 31.3 µg/mL (≈ 64.2 µM); in test [2], 0.78 µg/mL (≈ 1.6 µM); in test [3] it was 3.13 µg/mL (≈ 6.42 µM); in the test with Salmonella typhi O-901-W it was 1.56 µg/mL (≈ 3.2 µM); in [4], 3.13 µg/mL (≈ 6.42 µM); in [5] it was 3.13 µg/mL (≈ 6.42 µM). Moreover, the MIC with Proteus vulgaris OX-19 turned out to be 6.25 µg/mL (≈ 12.8 µM); in test [6], 3.13 µg/mL (≈ 6.42 µM); in [7] it was 0.78 µg/mL (≈ 1.6 µM); in test [8] it was 0.78 µg/mL (≈ 1.6 µM); in the test on Candida alubicans GA-24, 3.12 µg/mL (≈ 6.4 µM); in test [9], 3.12 µg/mL (≈ 6.4 µM). The MIC stood at 0.39 µg/mL (≈ 0.799 µM) in test [10], 0.39 µg/mL (≈ 0.799 µM) in test [11] and 0.78 µg/mL (≈ 1.6 µM) in test [12].

Regarding `O=[N+]([O-])c1cc(Cl)n(CC(I)=C(I)I)c1` [1-(2',3',3'-triiodoallyl)-2-chloro-4-nitropyrrole], the MIC in [1] (Staphylococcus aureus, 209P) is 6.25 µg/mL (≈ 11.1 µM); in [13], 6.25 µg/mL (≈ 11.1 µM); in [14], 6.25 µg/mL (≈ 11.1 µM); in test [3], 12.5 µg/mL (≈ 22.2 µM); in test [4], 12.5 µg/mL (≈ 22.2 µM); in the test with Proteus vulgaris OX-19, 12.5 µg/mL (≈ 22.2 µM). In addition, the MIC in [6] came out at 12.5 µg/mL (≈ 22.2 µM); in test [7] it was 12.5 µg/mL (≈ 22.2 µM); in [15], 0.39 µg/mL (≈ 0.691 µM); in test [16], 1.56 µg/mL (≈ 2.76 µM); in test [17], 1.56 µg/mL (≈ 2.76 µM); in the test on Mucor spinescens IAM Mu3, 3.13 µg/mL (≈ 5.55 µM). Besides, the MIC in test [18] stood at 0.2 µg/mL (≈ 0.354 µM); in test [19] it was 1.56 µg/mL (≈ 2.76 µM); in [20], 6.25 µg/mL (≈ 11.1 µM); in test [21] it was 3.13 µg/mL (≈ 5.55 µM); in test [22] it was 0.78 µg/mL (≈ 1.38 µM).
